In general, Kd refers to a measure of binding affinity in units of concentration. Low values mean tighter binding, high ones weaker binding.

Test [1] concerns the target T1, 6-phosphogluconate dehydrogenase (6PGD) (Homo sapiens, UniProt P52209).
T1 sequence (P52209 1-483): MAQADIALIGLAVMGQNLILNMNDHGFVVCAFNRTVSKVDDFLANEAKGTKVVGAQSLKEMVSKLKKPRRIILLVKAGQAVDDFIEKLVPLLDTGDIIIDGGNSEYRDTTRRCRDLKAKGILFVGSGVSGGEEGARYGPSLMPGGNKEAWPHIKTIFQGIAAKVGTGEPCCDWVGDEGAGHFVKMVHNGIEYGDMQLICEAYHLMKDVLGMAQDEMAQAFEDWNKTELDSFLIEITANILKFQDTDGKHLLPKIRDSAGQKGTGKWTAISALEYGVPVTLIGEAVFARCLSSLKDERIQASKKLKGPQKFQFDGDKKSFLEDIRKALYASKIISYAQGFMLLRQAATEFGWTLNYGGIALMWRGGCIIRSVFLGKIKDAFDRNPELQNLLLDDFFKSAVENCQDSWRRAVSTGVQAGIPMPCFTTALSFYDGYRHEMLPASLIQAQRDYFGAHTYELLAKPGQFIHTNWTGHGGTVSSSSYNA
Kind of test: tryptophan fluorescence-based binding assay with purified human 6PGD.

Test [2] has as its target T1, 6-phosphogluconate dehydrogenase (6PGD). The test is described as above. The source holds these as a separate data set.

Structures are written as SMILES. Where two headings read alike, the source gives them in different places.

`COc1cc(O)c2c(c1)C(=O)c1cc(C)cc(O)c1C2=O` [Physcion, 1,8-Dihydroxy-3-methoxy-6-methyl-anthraquinone]: in test [1], the affinity, expressed as Kd, was 26 µM.

Compound `COc1cccc2c1C(=O)c1c(O)cccc1C2=O` [S3, 1-Hydroxy-8-methoxy-anthraquinon] yielded a Kd in test [2] of 17.1 µM.
